Values joined by “and” are separate entries in the source; they are usually repeats but may differ in a detail not shown here. Equal entries are not always repeated.

Series [1] has as its system patients with dry eye disease. Put plainly: Single application to eyelids of patients with dry eye disease (Expt 1). It is filed as in vivo, human. The method, then:
In the first experiment in which only a single application was tested, 60 subjects were randomly assigned using online software (http://www.graphpad.com/quickcalcs/index.cfm). One group received the vehicle solution (distilled water) (N = 30), and the second group received the TRPM8 agonist C3 dissolved in 2 mg/mL in distilled water (N = 30). Test solutions were kept at room temperature and topically applied to the eyelid skin and margins using an absorbent cotton gauze square (0.4 g rectangle (50 mm × 60 mm), CS-being, Daisan Cotton, Japan). A loading volume of 0.5 mL of solution was used to wet the cotton and the square wiped twice across the closed eyelids (Fig. 5c). The off-loaded volume from the gauze was estimated by weighing the square before and after wiping and found to be 6.5 mg or 6.5 μL. For the C3 solution this is equivalent to 13 μg of C3 for both eyes. This method of delivery targets the edges of the closed eyelids and utilizes the eyelashes as a wick to distribute the solution to the mucocutaneous junctions, conjunctiva, and precorneal film. The lid wiper mechanism of the blink further evenly distributes the solution on to the ocular surface. By using this wiping method, bolus delivery of an eye drop to the corneal surface is avoided.
Subsequently, cooling sensation (every 5 min), TBUT (every 10 min), basal tear secretion (every 20 min), and keratoepitheliopathy (KEP) score (every 30 min) were evaluated for 1 h. In addition, a questionnaire asking the severity of dry eye was used to evaluate the changes in dry eye symptom before and 1 h after application of topical agents. To avoid the effect of topical anesthesia on patient’s sensation, changes in cooling sensation and symptoms of dry eye were evaluated in the right eye, and the remaining examinations including the basal tear secretion measured by Schirmer score with application of topical 0.5% proparacine were performed on the left eye. All examinations were performed by a single masked investigator (K.C.Y) who was not informed of the results of the randomization. All the experiments and the answering the questionnaire were performed in a separate room so that the subjects would not compare the difference of the medications. The room temperature of the study was maintained at 25 °C. Cooling sensation was recorded by subjects using VAS symptom intensity scores on a scale of 0 (no symptom) to 10 (maximum intensity). The severity of dry eye symptoms was graded on a numerical score of 0 to 4 as follows; 0, no symptoms; 1, mild symptoms; 2, moderate symptoms; 3, severe symptoms; and 4, very severe symptoms. TBUT and basal tear secretion (Schirmer score with application of topical 0.5% proparacaine) were measured as previously described. To assess the corneal epithelial damage, the cornea was stained with 1% Fluorescein dye and the severity of KEP was scored by multiplying the area score (0–3) by density score (0–3) of staining.

The test system of series [2] is TRPM8-sensory neurons. The series is described as follows: Calcium imaging of primary sensory neurons from Trpm8 EGFP mice. It is filed as cell-based, mouse. As to conditions: C3 10 μM. The method, then: Calcium imaging was used to test the C3 selectivity on TRPM8-sensory neurons. Trpm8 ^+/EGFPmice were gifted by Dr. Yu-Qing Cao, Pain Center of Washington University in Saint Louis, School of Medicine, Missouri. Trigeminal ganglions and dorsal root ganglions from 4 to 5 weeks old mice were collected after CO2 euthanasia and digested for 30–40 min before plated on cover slips (8 mm), which were coated with poly-D-lysine for 40 min before use. Cover slips were gently washed with culture media to remove myelin after incubating for 35–40 min. Calcium imaging was done after incubation overnight at 37 °C, 5% CO2. Neurons were loaded with Fura-2 AM™ (Molecular Probes) for 30 min at room temperature. After washing and recovery, neurons were imaged at 340 and 380 nm excitation to detect free calcium influx. An increase of 50% of the 340/380 ratio was considered as the response threshold which were measured under blinded conditions for genotypes. Compounds were applied to the bath and calcium response was acquired by an inverted Nikon fluorescence microscope with a CoolSnap HQ2 CCD camera (Photometrics, Tucson, AZ). Data was quantified offline with the Nikon-NIS program.

Series [3] has as its system dry eye mice. The series is described as follows: Mouse dry eye model (extraorbital lacrimal gland removal): tear volume, blinking, corneal abrasion. It is filed as in vivo. Conditions: for Tear secretion (phenol-red thread wetting): mean ± SEM. The procedure: C57BL/6 J wild-type mice were purchased from Jackson Laboratory (Stock No. 000664). Adult male mice were anesthetized with xylazine ([…]) and ketamine ([…]) mixture and incisions of 5 mm were made in the skin between the eye and the ear, both extraorbital lacrimal glands were gently isolated by forceps and removed. As mouse has three pairs of lacrimal glands, removing the extraorbital ones will induce partially tear secretion deficiency, but still have other tear sources to be triggered. Sham mice received the same procedure without gland removal. Skin was sutured with 6–0 black monofilament nylon (Ethilon from Ethicon, Inc.). All mice received antibiotics (100 μL Enroflox™, intramuscular daily) and topical analgesia (2% lidocaine gel) for 2 days postoperative. Behavioral assays were done between 2 and 4 weeks after the surgery.
Tear volume was measured with phenol-red cotton threads (Zone-Quick; Showa Yakuhin Kako CO., Ltd., Tokyo, Japan) as described. The threads were held with forceps and applied to the lateral canthus for 30 s. Immediately afterwards the wetting of the thread was read in mm under a dissection microscope. Corneal abrasion was assessed under cobalt blue light after application of 0.5 μl of 0.25% fluorescein sodium (Bausch & Lomb Inc. Tampa, FL 33637). Grades of abrasion were classified with a grading system that is based on area of corneal staining. Grouping was blinded to the observers. Results were grouped according to the treatments after analysis.
To determine if C3 affected tear secretion, we tested its effect in mice. Mice were held firmly and 2 μL of C3 or vehicle was wiped gently on eyelid by pipette from nasal side to bitemporal. Tear secretion was increased by C3 in sham-operated animals and in mice in which the extraorbital lacrimal glands were surgically removed (Fig. 4a). […] The positive results in an animal model of DED justified further studies in human subjects.

Series [4] has as its target T1, mouse TRPV1 (Mus musculus, UniProt Q704Y3).
T1 construct: expressed in transfected cells; host or cells: KNRK cells (rat kidney), transiently transfected
The series is described as follows: TRPV1 calcium imaging (Fura-2) in transfected KNRK cells. It is filed as cell-based. Conditions: 10 μM. The method, then:
To further examine the specificity of C3, tests were conducted on TRPV1 channels and TRPA1 channels expressed in Kirsten murine sarcoma virus transformed rat kidney (KNRK) cells. KNRK cells were cultured as a monolayer and maintained in Dulbeccos’s Modified Eagles’s Medium (Life Technologies), supplemented with 10% fetal bovine serum (Life Technologies), 100 units/mL penicillin and 100 μg/mL streptomycin, in an incubator of 5% CO2 at 37 °C. After suspension, the cells were coated on cover slips for 12 h, then transiently transfected with cDNA (pc3.1 DNA) for TRPV1 or TRPA1 with Lipofectamine 2000 (Invitrogen) for 24 h, and loaded with Fura-2 AM™ (Molecular Probes) for 40 min at 37 °C. After washing and recovery, KNRK cells were imaged at 340 and 380 nm excitation to detect free calcium influx. An increase of 50% of the 340/380 ratio was considered as the response threshold which were measured under masked conditions for plasmids. Compounds were applied to the bath and calcium response was acquired by an inverted Nikon fluorescence microscope with a CoolSnap HQ2 CCD camera (Photometrics, Tucson, AZ). Data were quantified offline with the Nikon-NIS program.

Where [5] appears, read: sham group or dry eye mouse model, single administration.

T1 sequence (Q704Y3 whole entry): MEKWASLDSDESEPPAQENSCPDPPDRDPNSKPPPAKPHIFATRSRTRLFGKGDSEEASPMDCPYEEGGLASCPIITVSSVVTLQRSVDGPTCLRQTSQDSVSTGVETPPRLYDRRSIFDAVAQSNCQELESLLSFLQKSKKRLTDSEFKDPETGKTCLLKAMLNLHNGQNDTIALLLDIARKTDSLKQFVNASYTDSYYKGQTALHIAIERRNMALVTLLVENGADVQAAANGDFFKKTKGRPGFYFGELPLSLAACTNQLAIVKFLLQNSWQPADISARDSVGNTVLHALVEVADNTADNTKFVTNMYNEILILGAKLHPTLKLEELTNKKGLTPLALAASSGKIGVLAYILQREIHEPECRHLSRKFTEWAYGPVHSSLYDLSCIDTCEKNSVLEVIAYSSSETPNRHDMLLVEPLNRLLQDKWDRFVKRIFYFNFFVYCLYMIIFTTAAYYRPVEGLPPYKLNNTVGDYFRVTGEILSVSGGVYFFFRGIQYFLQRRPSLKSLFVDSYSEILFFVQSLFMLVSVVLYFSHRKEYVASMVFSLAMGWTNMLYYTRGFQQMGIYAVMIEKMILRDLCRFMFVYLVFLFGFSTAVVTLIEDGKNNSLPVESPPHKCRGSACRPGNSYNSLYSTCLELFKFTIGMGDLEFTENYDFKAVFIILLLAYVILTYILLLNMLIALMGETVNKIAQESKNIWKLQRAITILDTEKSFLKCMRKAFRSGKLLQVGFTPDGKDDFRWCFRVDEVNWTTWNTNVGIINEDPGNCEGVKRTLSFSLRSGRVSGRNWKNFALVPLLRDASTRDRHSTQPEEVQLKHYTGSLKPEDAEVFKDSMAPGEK

Regarding `CCCCCCCCCP(=O)(C(C)C)C(C)C` [C3, 1-diisopropylphosphorylnonane], in series [1] (2 mg/mL single application), the “duration of increase in tear secretion” value is listed as 60 min and the “ocular pain or irritation” value is on record as “None of patients reported”. The basal tear secretion entry in series [1] (2 mg/mL single application, 20, 40 and 60 min) is listed as “significantly increased”. Further, the TBUT entry in series [1] (2 mg/mL single application, 30 min and 40 min, above baseline) was “significantly elevated”. In series [1] (2 mg/mL single application, 1 h, compared to baseline), the “dry eye symptom score” value is reported as “improved significantly”. Further, in series [1] (2 mg/mL single application, n = 30), the “duration of ocular cooling” value was 46 min and 46 ± 2 min. Further, the KEP score entry in series [1] (2 mg/mL single application, versus vehicle) is “No differences”. For the same compound, in series [2], the “calcium entry in TRPM8 EGFP/+ sensory neurons” value is on record as “activates calcium entry”. Besides, the “Tear secretion (phenol-red thread wetting)” value in series [3] (dry eye mice, n = 6, 2 μL wiped on eyelid) is on record as 1.3 ± 0.4 mm. In addition, in series [3] (setting [5]), the Spontaneous blinking result is on record as “not affected” and the corneal abrasion entry is listed as “not affected”. Moreover, the “Tear secretion (phenol-red thread wetting)” value in series [3] (sham group, n = 5, 2 μL wiped on eyelid) is reported as 5.4 ± 0.5 mm. Further, the “activation of TRPV1 (calcium response)” value in series [4] is “inactive”.
